Experimental data taken from US9255110B2 (Hoffmann-La Roche Inc., priority 2010, dated 2016).
Structures can show the parent of a compound that is named as a salt.

Key:
[1] = target: IRAK-4 (Homo sapiens (Human), UniProt Q9NWZ3); experiment: In vitro IRAK-4 kinase assay; format: biochemical; details: purified recombinant IRAK-4, 50 uM ATP, 33P peptide phosphorylation
How it was run: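 Recombinant IRAK-4 or IRAK-1 incubated with 250 uM synthetic peptide in MOPS pH7.2 kinase buffer with 50 uM ATP, 20 mM MgCl2 and γ-33P ATP for the indicated time. Phosphorylated peptide captured on phosphocellulose, washed with phosphoric acid, quantified by scintillation counting.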

[2] = target: IRAK-1 (Homo sapiens (Human), UniProt P51617); experiment: In vitro IRAK-1 kinase assay; format: biochemical; details: purified recombinant IRAK-1, 50 uM ATP, 33P peptide phosphorylation
IRAK-1, sequence (P51617 whole entry, species assumed): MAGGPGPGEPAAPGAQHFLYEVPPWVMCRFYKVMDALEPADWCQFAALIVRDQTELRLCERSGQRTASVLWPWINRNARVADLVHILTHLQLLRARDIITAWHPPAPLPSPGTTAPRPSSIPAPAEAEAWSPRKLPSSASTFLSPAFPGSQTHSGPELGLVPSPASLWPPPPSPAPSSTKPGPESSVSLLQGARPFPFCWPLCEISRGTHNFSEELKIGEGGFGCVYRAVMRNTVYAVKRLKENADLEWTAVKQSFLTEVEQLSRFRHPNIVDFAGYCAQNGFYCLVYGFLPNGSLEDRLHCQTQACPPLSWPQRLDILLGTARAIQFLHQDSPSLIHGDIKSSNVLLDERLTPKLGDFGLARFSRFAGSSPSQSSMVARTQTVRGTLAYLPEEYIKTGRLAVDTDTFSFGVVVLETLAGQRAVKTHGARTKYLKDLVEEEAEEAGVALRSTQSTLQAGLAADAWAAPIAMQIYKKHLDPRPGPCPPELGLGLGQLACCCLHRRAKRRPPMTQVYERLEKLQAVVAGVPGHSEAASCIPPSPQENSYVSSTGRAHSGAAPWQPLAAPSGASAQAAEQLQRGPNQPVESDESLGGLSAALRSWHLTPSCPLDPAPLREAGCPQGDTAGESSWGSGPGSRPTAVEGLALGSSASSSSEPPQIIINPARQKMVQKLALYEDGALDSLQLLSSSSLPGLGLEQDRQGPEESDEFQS
Procedure: Purified recombinant IRAK-4 protein was incubated with 250 uM synthetic peptide ([…]) in 30 ul of kinase buffer including (20 mM MOPS pH7.2, 25 mM beta glycerol phosphate, 5 mM EGTA, 1 mM sodium orthovanadate, 1 mM DTT, 50 uM ATP, 20 mM MgCl2, 10 uCi γ-^33P, 0.1% BSA) for the indicated time. For purified recombinant IRAK-1 protein kinase assay, 50 uM ATP was used. A 25 ul aliquot of the reaction mixture was transferred on to p81 phosphocellulose squares (Upstate Biotechnology, Lake Placid, N.Y.). The assay squares were washed three times with 0.75% phosphoric acid and once with acetone. Enzyme activity was measured by determining the bound radioactivity by liquid scintillation counting.

IRAK-4, sequence (Q9NWZ3 whole entry, species assumed): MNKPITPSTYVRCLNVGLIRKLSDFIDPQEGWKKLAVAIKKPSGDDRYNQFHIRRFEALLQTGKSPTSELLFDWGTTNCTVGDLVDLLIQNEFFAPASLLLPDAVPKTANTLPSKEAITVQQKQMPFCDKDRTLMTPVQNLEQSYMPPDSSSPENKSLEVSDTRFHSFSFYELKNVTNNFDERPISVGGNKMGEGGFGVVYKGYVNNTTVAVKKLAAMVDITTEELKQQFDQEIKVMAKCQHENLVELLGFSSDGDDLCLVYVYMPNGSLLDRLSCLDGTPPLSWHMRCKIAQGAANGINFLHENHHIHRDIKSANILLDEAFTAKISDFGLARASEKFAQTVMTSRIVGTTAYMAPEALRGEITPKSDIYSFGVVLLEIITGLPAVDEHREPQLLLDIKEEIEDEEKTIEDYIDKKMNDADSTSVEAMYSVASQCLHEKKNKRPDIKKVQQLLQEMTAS

| Compound | IC50 [1] | IC50 [2] |
| --- | --- | --- |
| O=C(Nc1cc2cccnc2cc1O[C@H]1CC[C@H](O)CC1)c1csc2cncnc12 | 0.011 µM | 0.168 µM |
| 2-(cis-2-amino-cyclohexylamino)-thieno[3,2-d]pyrimidine-7-carboxylic acid (2,4-dimethoxy-phenyl)-amide [Example 26] | – | 0.463 µM |
| O=C(Nc1cc2cccnc2cc1O[C@@H]1CC[C@@H](O)C1)c1csc2cncnc12 (stereo in doubt) [hydrochloride] | 0.015 µM | 0.246 µM |
| NCC1CCN(c2cc3ncccc3cc2NC(=O)c2csc3cncnc23)CC1 [Example 14, hydrochloride] | 0.012 µM | 0.85 µM |
| O=C(Nc1cc(Cl)ccc1N1CCCCC1)c1cnn2cc(O)cnc12 [Example 20, 6-Hydroxy-pyrazolo[1,5-a]pyrimidine-3-carboxylic acid (5-chloro-2-piperidin-1-yl-phenyl)-amide] | 0.024 µM | 0.644 µM |
| COc1cc2ncccc2cc1NC(=O)c1csc2cnc(N(C)CCO)nc12 [Example 24] | 0.029 µM | 0.3 µM |
| CC(C)(CCO)Oc1cc2ncccc2cc1NC(=O)c1csc2cncnc12 [Example 35, Thieno[3,2-d]pyrimidine-7-carboxylic acid [7-(3-hydroxy-1,1-dimethyl-propoxy)-quinolin-6-yl]-amide hydrochloride] | 0.049 µM | 0.364 µM |
| CN(C)CC1CCN(c2ccc(Cl)cc2NC(=O)c2cnn3cc(O)cnc23)CC1 [Example 37, 6-Hydroxy-pyrazolo[1,5-alpha]pyrimidine-3-carboxylic acid [5-chloro-2-(4-dimethyl-aminomethyl-piperidin-1-yl)-phenyl]-amide] | 0.053 µM | 0.307 µM |
| CC(O)C1CCN(c2ccc(Cl)cc2NC(=O)c2cnn3cccnc23)C1 (stereo not drawn) [Example 44, Pyrazolo[1,{tildeover (5)}-alpha] pyrimidine-3-carboxylic acid {5-chloro-2-[3-(1-hydroxy-ethyl)-pyrrolidin-1-yl]-phenyl}-amide] | 0.076 µM | 0.897 µM |
| COc1cc2ncccc2cc1NC(=O)c1csc2cnc(NCC(O)CO)nc12 (stereo not drawn) [Example 47, 2-(2,3-Dihydroxy-propylamino)-thieno[3,2-d]pyrimidine-7-carboxylic acid (7-methoxy-quinolin-6-yl)-amide] | 0.082 µM | 0.608 µM |
| O=C(Nc1cc(Cl)ccc1N1CCC(CO)CC1)c1csc2cncnc12 [Example 49, Thieno[3,2-d]pyrimidine-7-carboxylic acid [5-chloro-2-(4-hydroxymethyl-piperidin-1-yl)-phenyl]-amide] | 0.1 µM | 0.7 µM |
| O=C(Nc1cc(Cl)ccc1O[C@H]1CC[C@@H](O)CC1)c1csc2cncnc12 [Example 62, Thieno[3,2-d]pyrimidine-7-carboxylic acid [5-chloro-2-(4-hydroxy-cyclohexyloxy)-phenyl]-amide] | 0.149 µM | 0.126 µM |
| NCC1CCN(c2ccc(Cl)cc2NC(=O)c2csc3cncnc23)CC1 [Example 64, Thieno[3,2-d]pyrimidine-7-carboxylic acid [2-(4-aminomethyl-piperidin-1-yl)-5-chloro-phenyl]-amide] | 0.167 µM | 0.8 µM |
| O=C(Nc1cc(Cl)ccc1O[C@H]1CC[C@H](O)CC1)c1csc2cncnc12 [Example 81, Thieno[3,2-d]pyrimidine-7-carboxylic acid [5-chloro-2-(4-hydroxy-cyclohexyloxy)-phenyl]-amide] | 0.338 µM | 0.6 µM |
| COc1c(C)cc(C)cc1NC(=O)c1cnn2cccnc12 [Example 168, Pyrazolo[1,5-alpha]pyrimidine-3-carboxylic acid (2-methoxy-3,5-dimethyl-phenyl)-amide] | 6.52 µM | – |
| COc1ccccc1NC(=O)c1csc2cncnc12 [Example 169, Thieno[3,2-d]pyrimidine-7-carboxylic acid (2-methoxy-phenyl)-amide] | 6.56 µM | – |
| Cc1ccn2ncc(C(=O)Nc3cc(Cl)ccc3OC3CCC(O)CC3)c2n1 (stereo not drawn) [Example 170, 5-Methyl-pyrazolo[1,5-alpha]pyrimidine-3-carboxylic acid [5-chloro-2-(4-hydroxy-cyclohexyloxy)-phenyl]-amide] | 6.56 µM | – |
| COc1ccccc1NC(=O)c1cnn2cccnc12 [Example 171, Pyrazolo[1,5-alpha]pyrimidine-3-carboxylic acid (2-methoxy-phenyl)-amide] | 7.34 µM | – |
| COc1cc(C(=O)N(C)C)ccc1NC(=O)c1cnn2cccnc12 [Example 172, Pyrazolo[1,5-alpha]pyrimidine-3-carboxylic acid (4-dimethylcarbamoyl-2-methoxy-phenyl)-amide] | 7.65 µM | – |
| COc1ccc(NC(C)=O)cc1NC(=O)c1cnn2cccnc12 [Example 173, Pyrazolo[1,5-alpha]pyrimidine-3-carboxylic acid (5-acetylamino-2-methoxy-phenyl)-amide] | 7.7 µM | – |
| COc1cc(C(=O)Nc2ccccc2)c(Cl)cc1NC(=O)c1cnn2cccnc12 [Example 174, Pyrazolo[1,5-alpha]pyrimidine-3-carboxylic acid (5-chloro-2-methoxy-4-phenylcarbamoyl-phenyl)-amide] | 7.92 µM | – |
| COc1ccc(Cl)cc1NC(=O)c1csc2cnc(NCCNC(C)=O)nc12 [Example 175, 2-(2-Acetylamino-ethylamino)-thieno[3,2-d]pyrimidine-7-carboxylic acid-(5-chloro-2-methoxy-phenyl)-amide] | 8.09 µM | – |
| COc1ccc(CCCO)cc1NC(=O)c1cnn2cccnc12 [Example 176, Pyrazolo[1,5-alpha]pyrimidine-3-carboxylic acid [5-(3-hydroxy-propyl)-2-methoxy-phenyl]-amide] | 8.36 µM | – |
| COc1cc(CO)ccc1NC(=O)c1cnn2cccnc12 [Example 177, Pyrazolo[1,5-alpha]pyrimidine-3-carboxylic acid (4-hydroxymethyl-2-methoxy-phenyl)-amide] | 8.67 µM | – |
| O=C(Nc1cc(Cl)ccc1OC1CCC(O)CC1)c1cnn2cc(CCCO)cnc12 (stereo not drawn) [Example 178, 6-(3-Hydroxy-propyl)-pyrazolo[1,5-alpha]pyrimidine-3-carboxylic acid [5-chloro-2-(4-hydroxy-cyclohexyloxy)-phenyl]-amide] | 9.42 µM | – |
| O=C(Nc1cc(Cl)ccc1OCCO)c1cnn2cccnc12 [Example 179, Pyrazolo[1,5-alpha]pyrimidine-3-carboxylic acid [5-chloro-2-(2-hydroxy-ethoxy)-phenyl]-amide] | 5 µM | – |
